Reference: PMC11233000, “Characterization of BrGH3A, a bovine rumen-derived glycoside hydrolase family 3 β-glucosidase with a permuted domain arrangement” (PLOS ONE, 2024)

Tests used:
BrGH3A [1] = tested on: T1, BrGH3A; experiment: glucose release, glucose oxidase/ABTS; format: biochemical, metagenome: bovine ruminal fluid; settings: 0.1 M sodium citrate, pH 5.0, 40°C, 5 min
T1 construct: C-FnIII-N domain order is natural
Description: glucose release, glucose oxidase/ABTS on BrGH3A

BrGH3A [2] = tested on: T1, BrGH3A; experiment: p-nitrophenol release, absorbance […] nm; format: biochemical, metagenome: bovine ruminal fluid; settings: 0.1 M sodium citrate, pH 5.0, 40°C, 5 min
[3] = released glucose divided by two

SMILES | Km (BrGH3A [2]) [mM] | further results
OC[C@H]1O[C@@H](O[C@H]2[C@H](O)[C@@H](O)C(O)O[C@@H]2CO)[C@H](O)[C@@H](O)[C@@H]1O (some centres unmarked) [Cellobiose] | – | Km (BrGH3A [1]; [3]): 30 ± 3.9 mM
OC[C@H]1O[C@@H](O[C@H]2[C@H](O)[C@@H](CO)OC(O)[C@@H]2O)[C@H](O)[C@@H](O)[C@@H]1O (some centres unmarked) [Laminaribiose] | – | Km (BrGH3A [1]; [3]): 14.3 ± 1.3 mM
OC[C@H]1O[C@@H](O[C@@H]2[C@@H](O)[C@H](O[C@H]3[C@H](O)[C@@H](CO)OC(O)[C@@H]3O)O[C@H](CO)[C@H]2O)[C@H](O)[C@@H](O)[C@@H]1O (some centres unmarked) [Laminaritriose] | – | Km (BrGH3A [1]; calculated as total released glucose): 5.4 ± 0.42 mM
O=[N+]([O-])c1ccc(O[C@@H]2OC[C@H](O)[C@H](O)[C@H]2O)cc1 [pNP-Ara, p-nitrophenyl-α-L-arabinopyranoside] | 9.95 ± 1.16 | –
C[C@H]1O[C@@H](Oc2ccc([N+](=O)[O-])cc2)[C@H](O)[C@@H](O)[C@H]1O [pNP-Fuc, p-nitrophenyl-β-D-fucopyranoside] | 7.96 ± 0.64 | –
O=[N+]([O-])c1ccc(O[C@@H]2O[C@H](CO)[C@H](O)[C@H](O)[C@H]2O)cc1 [pNP-Gal, p-nitrophenyl-β-D-galactopyranoside] | 7.55 ± 0.9 | –
O=[N+]([O-])c1ccc(O[C@@H]2O[C@H](CO)[C@@H](O)[C@H](O)[C@H]2O)cc1 [pNP-Glc, p-nitrophenyl-β-D-glucopyranoside] | 0.6 ± 0.04 | –
O=[N+]([O-])c1ccc(O[C@@H]2OC[C@@H](O)[C@H](O)[C@H]2O)cc1 [pNP-Xyl, p-nitrophenyl-β-D-xylopyranoside] | 2.12 ± 0.1 | –
